Measurements reported in patent US6319932A, “Oxazolidinones useful as alpha 1A adrenoceptor antagonists” (Merck & Co., Inc., priority 1999, dated 2001).

Key:
[1] = molecular target: T1, human alpha 1a adrenergic receptor (Homo sapiens, UniProt P35348); assay: Screening Assay: Alpha 1a Adrenergic Receptor Binding ([125I]-HEAT competition binding); conditions: membranes of stably transfected human alpha 1a cell line; 100 pM [125I]-HEAT
T1 construct: expressed in transfected cells; host or cells: stably transfected human alpha 1a cell line (ATCC CRL 11140), membranes
T1 sequence (P35348 1-466): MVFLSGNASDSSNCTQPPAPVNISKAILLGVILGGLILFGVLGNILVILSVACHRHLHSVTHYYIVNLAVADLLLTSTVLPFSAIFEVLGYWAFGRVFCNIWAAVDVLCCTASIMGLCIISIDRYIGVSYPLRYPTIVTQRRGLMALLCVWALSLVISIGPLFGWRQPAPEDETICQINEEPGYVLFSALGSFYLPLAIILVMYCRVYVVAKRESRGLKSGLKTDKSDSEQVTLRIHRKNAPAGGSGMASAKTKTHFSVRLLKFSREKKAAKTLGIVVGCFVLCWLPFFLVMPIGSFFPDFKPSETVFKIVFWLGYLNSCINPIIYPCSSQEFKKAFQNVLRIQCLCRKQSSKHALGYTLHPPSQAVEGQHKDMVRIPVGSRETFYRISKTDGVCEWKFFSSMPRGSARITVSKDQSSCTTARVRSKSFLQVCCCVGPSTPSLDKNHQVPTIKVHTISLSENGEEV
Description: Screening Assay: Alpha 1a Adrenergic Receptor Binding
Membranes prepared from the stably transfected human alpha 1a cell line (ATCC CRL 11140) were used to identify compounds that bind to the human alpha 1a adrenergic receptor. These competition binding reactions (total volume=200 μl) contained 50 mM Tris-HCl pH. 7.4, 5 mM EDTA, 150 mM NaCl, 100 pM [^125 I]-HEAT, membranes prepared from the alpha 1a cell line and increasing amounts of unlabeled ligand. Reactions were incubated at room temperature for one hour with shaking. Reactions were filtered onto Whatman GF/C glass fiber filters with a Inotec 96 well cell harvester. Filters were washed three times with ice cold buffer and bound radioactivity was determined (Ki).

[2] = tested on: human alpha 1d adrenergic receptor; assay: Selective Binding Assays, alpha 1d ([125I]-HEAT competition binding); conditions: alpha 1a versus alpha 1d
Description: (§1) Membranes prepared from stably transfected human alpha 1d and alpha 1b cell lines (ATCC CRL 11138 and CRL 11139, respectively) were used to identify compounds that selectively bind to the human alpha 1a adrenergic receptor. These competition binding reactions (total volume=200 μl ) contained 50 mM Tris-HCl pH. 7.4, 5 mM EDTA, 150 mM NaCl, 100 pM [^125 I]-HEAT, membranes prepared from cell lines transfected with the respective alpha 1 subtype expression plasmid and increasing amounts of unlabeled ligand. Reactions were incubated at room temperature for one hour with shaking. Reactions were filtered onto Whatman GF/C glass fiber filters with a Inotec 96 well cell harvester. Filters were washed three times with ice cold buffer and bound radioactivity was determined (Ki).

[3] = tested on: human alpha 1b adrenergic receptor; assay: Selective Binding Assays, alpha 1b ([125I]-HEAT competition binding); conditions: alpha 1a versus alpha 1b
Description: as §1

N#Cc1ccccc1C1(C#N)CCN(CCCNC(=O)N2C(=O)O[C@@H](C(N)=O)[C@@H]2c2ccc(F)c(F)c2)CC1 [Example 10]
Ki [1]: 3.9 nM

O=C(c1ccccc1)[C@@H]1OC(=O)N(C(=O)NCCCN2CCC(c3ccc(F)cc3)CC2)[C@H]1c1ccc(F)c(F)c1 [Example 11]
selectivity in binding to alpha 1a receptors versus alpha 1d receptors [2]: about 76 fold | selectivity in binding to alpha 1a receptors versus alpha 1b receptors [3]: about 27 fold
